The subject of test [1] is A549. In words: Cytotoxicity against human A549 cells. Type of test: functional, cell-based.
Test [2] is described as follows: Cytotoxicity against human PC3 cells. As to conditions: PC-3. Type of test: functional, cell-based.
Test [3] deals with Candida albicans. In words: Antimicrobial activity against Candida albicans MTCC 3017 after 24 hrs by well diffusion method. The test is classed as functional. The note with it: MTCC 3017, 24 h. On the technique in general: A growth-free zone around the sample is the usual read-out of agar diffusion tests.
Test [4] deals with Staphylococcus aureus. Kind of test: Bactericidal activity against Staphylococcus aureus MTCC 96 after 24 hrs by serial dilution method. The test is classed as functional. As to conditions: MTCC 96, 24 h.
For test [5], the system named is Staphylococcus aureus. In words: Antimicrobial activity against Staphylococcus aureus MLS16 MTCC 2940 after 24 hrs by well diffusion method. The test is classed as functional. As to conditions: MLS16 MTCC 2940, 24 h.
The subject of test [6] is Escherichia coli. Kind of test: Antimicrobial activity against Escherichia coli MTCC 739 after 24 hrs by well diffusion method. Type of test: functional. The note with it: MTCC 739, 24 h.
Test [7] has as its system Micrococcus luteus. In words: Bactericidal activity against Micrococcus luteus MTCC 2470 after 24 hrs by serial dilution method. As to conditions: MTCC 2470, 24 h. The test is classed as functional.
Test [8] concerns Staphylococcus aureus. Kind of test: Bactericidal activity against Staphylococcus aureus MLS16 MTCC 2940 after 24 hrs by serial dilution method. The note with it: MLS16 MTCC 2940, 24 h. Type of test: functional.
Test [9] concerns Staphylococcus aureus. Kind of test: Antibiofilm activity against Staphylococcus aureus MTCC 96 after 24 hrs by crystal violet staining based assay. The test is classed as functional, organism-based. As to conditions: MTCC 96, 24 h.
The test system of test [10] is Bacillus subtilis. Kind of test: Bactericidal activity against Bacillus subtilis MTCC 121 after 24 hrs by serial dilution method. As to conditions: MTCC 121, 24 h. The test is classed as functional.
Test [11] deals with Raoultella planticola. In words: Antimicrobial activity against Klebsiella planticola MTCC 530 after 24 hrs by well diffusion method. Type of test: functional. The note with it: MTCC 530, 24 h.
The subject of test [12] is Bacillus subtilis. In words: Antimicrobial activity against Bacillus subtilis MTCC 121 after 24 hrs by well diffusion method. As to conditions: MTCC 121, 24 h. The test is classed as functional.
Test [13] concerns Staphylococcus aureus. Kind of test: Antibiofilm activity against Staphylococcus aureus MLS16 MTCC 2940 after 24 hrs by crystal violet staining based assay. Type of test: functional, organism-based. The note with it: MLS16 MTCC 2940, 24 h.
In test [14] the test system is Raoultella planticola. In words: Antibiofilm activity against Klebsiella planticola MTCC 530 after 24 hrs by crystal violet staining based assay. The test is classed as functional, organism-based. The note with it: MTCC 530, 24 h.
The subject of test [15] is Micrococcus luteus. Kind of test: Antibiofilm activity against Micrococcus luteus MTCC 2470 after 24 hrs by crystal violet staining based assay. Type of test: functional, organism-based. The note with it: MTCC 2470, 24 h.
For test [16], the system named is Micrococcus luteus. Kind of test: Antimicrobial activity against Micrococcus luteus MTCC 2470 after 24 hrs by well diffusion method. The test is classed as functional. As to conditions: MTCC 2470, 24 h.
In test [17] the test system is Pseudomonas aeruginosa. Kind of test: Antimicrobial activity against Pseudomonas aeruginosa MTCC 2453 after 24 hrs by well diffusion method. As to conditions: MTCC 2453, 24 h. The test is classed as functional.
Test [18] deals with Bacillus subtilis. Kind of test: Antibiofilm activity against Bacillus subtilis MTCC 121 after 24 hrs by crystal violet staining based assay. The test is classed as functional, organism-based. The note with it: MTCC 121, 24 h.
Test [19] concerns Staphylococcus aureus. Kind of test: Antimicrobial activity against Staphylococcus aureus MTCC 96 after 24 hrs by well diffusion method. Type of test: functional. As to conditions: MTCC 96, 24 h.
For test [20], the system named is Raoultella planticola. Kind of test: Bactericidal activity against Klebsiella planticola MTCC 530 after 24 hrs by serial dilution method. The test is classed as functional. The note with it: MTCC 530, 24 h.
Test [21] relates to A549. In words: Selectivity ratio of IC50 for human A549 cells to IC50 for human PC3 cells. The test is classed as functional.
Test [22] relates to A549. In words: Cytotoxicity against human A549 cells after 72 hrs by XTT assay. The test is classed as functional, cell-based. The note with it: A549, 72 h.
Test [23] in a line: Cytotoxicity against human PC3 cells after 72 hrs by XTT assay. The note with it: PC-3, 72 h. Type of test: functional, cell-based. On the technique in general: Tetrazolium dyes change colour on reduction, which living cells bring about.

Values after ≈ are worked out from the molar mass of the structure shown.

Regarding `COc1ccc(C[C@H](N)C(=O)N[C@H]2[C@@H](O)[C@H](n3cnc4c(N(C)C)ncnc43)O[C@@H]2CO)cc1` [PUROMYCIN], the figures for the IC50 in test [1] and in [2] were 600 nM and 700 nM, respectively.

With `CO[C@@]12[C@H](COC(N)=O)C3=C(C(=O)C(C)=C(N)C3=O)N1C[C@@H]1N[C@@H]12` [MITOMYCIN], the minimum inhibitory concentration (MIC) in test [3] was > 500 µg/mL; in [5], 1.9 µg/mL (≈ 5.68 µM); in test [6], 3.9 µg/mL (≈ 11.7 µM); in test [11], 1.9 µg/mL (≈ 5.68 µM); in test [12] it was 0.45 µg/mL (≈ 1.35 µM); in [16], 0.9 µg/mL (≈ 2.69 µM). The minimal inhibitory concentration (MIC) in test [17] and in test [19] was 1.9 µg/mL (≈ 5.68 µM) in each case. For the same compound, the minimal bactericidal concentration (MBC) in [4] turned out to be 3.9 µg/mL (≈ 11.7 µM); in [7] it was 1.9 µg/mL (≈ 5.68 µM); in test [8], 1.9 µg/mL (≈ 5.68 µM); in [10], 0.9 µg/mL (≈ 2.69 µM); in [20] it was 3.9 µg/mL (≈ 11.7 µM). Further, the IC50 in test [9] is 1100 nM; in [13] it was 900 nM; in [14] it was 1100 nM; in test [1] it was 500 nM; in test [15], 900 nM; in test [18] it was 300 nM. Besides, the half-inhibitory concentration (IC50) in test [2] amounted to 500 nM.

On to `CN(Cc1ccc(F)cc1)C(=O)c1ccc(-c2cc(C3=C(N4CC4)C(=O)C=C(N4CC4)C3=O)no2)s1`, for which the MIC is > 125 µg/mL in test [3]; 31.2 µg/mL (≈ 61.8 µM) in test [5]; > 125 µg/mL in test [6]; > 125 µg/mL in test [11]; 15.6 µg/mL (≈ 30.9 µM) in test [12]; 31.2 µg/mL (≈ 61.8 µM) in test [16]. In addition, the figures for the MIC in test [17] and in test [19] were > 125 µg/mL and 62.5 µg/mL (≈ 124 µM), respectively. Further, the minimal bactericidal concentration (MBC) in [4] was > 125 µg/mL; in [7], > 125 µg/mL; in test [8] it was > 125 µg/mL; in test [10], 62.5 µg/mL (≈ 124 µM); in test [20] it was > 125 µg/mL. In addition, the “Ratio IC50” value in test [21] is listed as 30. Further, the results for the half-inhibitory concentration (IC50) in test [22] and in [23] were 15300 nM and 500 nM, respectively.

Usually IC50 stands for the point on the concentration scale where inhibition reaches its midpoint. A higher IC50 goes with weaker potency. A word on the MIC: it is the lowest concentration found to suppress growth. Read a high MIC as a less susceptible organism. For orientation: MBC means the lowest tested concentration that kills the bacteria rather than only halting them. Higher therefore signals weaker bactericidal potency.

For the origin of these results see ChEMBL document CHEMBL3808371, “Design, synthesis and biological evaluation of diaziridinyl quinone isoxazole hybrids” (Eur J Med Chem, 2016).
